Values of other authors, collected in PMC5465828 (Research in Pharmaceutical Sciences, 2017).

Tested on: human colon carcinoma HCT116 cell line
Settings: read-out: IC50 of doxorubicin in HCT116 cells; doxorubicin alone

IC50: 200 nM
SMILES: COc1cccc2c1C(=O)c1c(O)c3c(c(O)c1C2=O)C[C@@](O)(C(=O)CO)C[C@@H]3O[C@H]1C[C@H](N)[C@H](O)[C@H](C)O1 [doxorubicin]
